Measured values from ChEMBL document CHEMBL3044736, “Synthesis, characterization, solvatochromic properties, and antimicrobial evaluation of 5-acetyl-2-thioxo-dihydro-pyrimidine-4,6-dione-based chalcones” (2013).
Converted amounts (≈) assume the structure as drawn.

Legend:
Assay type in all cases: functional
Penicillium [1] = assay: Antimicrobial activity against Penicillium wild strain assessed as diameter of growth inhibition zone at 250 ug/ml after 48-96 hr by agar cup diffusion method; conditions: read-out: DIZ
Penicillium [2] = assay: Antimicrobial activity against Penicillium wild strain assessed as diameter of growth inhibition zone at 100 ug/ml after 48-96 hr by agar cup diffusion method; conditions: read-out: DIZ
Trichophyton rubrum [3] = assay: Antimicrobial activity against Trichophyton rubrum MTCC 296 assessed as diameter of growth inhibition zone at 100 ug/ml after 48-96 hr by agar cup diffusion method; conditions: read-out: DIZ
Aspergillus clavatus [4] = assay: Antimicrobial activity against Aspergillus clavatus MTCC 1323 assessed as diameter of growth inhibition zone at 100 ug/ml after 48-96 hr by agar cup diffusion method; conditions: read-out: DIZ
Candida albicans [5] = assay: Antimicrobial activity against Candida albicans MTCC 227 assessed as diameter of growth inhibition zone at 100 ug/ml after 48-96 hr by agar cup diffusion method; conditions: read-out: DIZ
Penicillium [6] = assay: Antimicrobial activity against Penicillium wild strain assessed as diameter of growth inhibition zone at 50 ug/ml after 48-96 hr by agar cup diffusion method; conditions: read-out: DIZ
Trichophyton rubrum [7] = assay: Antimicrobial activity against Trichophyton rubrum MTCC 296 assessed as diameter of growth inhibition zone at 50 ug/ml after 48-96 hr by agar cup diffusion method; conditions: read-out: DIZ
Aspergillus clavatus [8] = assay: Antimicrobial activity against Aspergillus clavatus MTCC 1323 assessed as diameter of growth inhibition zone at 50 ug/ml after 48-96 hr by agar cup diffusion method; conditions: read-out: DIZ
Candida albicans [9] = assay: Antimicrobial activity against Candida albicans MTCC 227 assessed as diameter of growth inhibition zone at 50 ug/ml after 48-96 hr by agar cup diffusion method; conditions: read-out: DIZ
Penicillium [10] = assay: Antimicrobial activity against Penicillium wild strain assessed as diameter of growth inhibition zone at 25 ug/ml after 48-96 hr by agar cup diffusion method; conditions: read-out: DIZ
Trichophyton rubrum [11] = assay: Antimicrobial activity against Trichophyton rubrum MTCC 296 assessed as diameter of growth inhibition zone at 25 ug/ml after 48-96 hr by agar cup diffusion method; conditions: read-out: DIZ
Aspergillus clavatus [12] = assay: Antimicrobial activity against Aspergillus clavatus MTCC 1323 assessed as diameter of growth inhibition zone at 25 ug/ml after 48-96 hr by agar cup diffusion method; conditions: read-out: DIZ
Candida albicans [13] = assay: Antimicrobial activity against Candida albicans MTCC 227 assessed as diameter of growth inhibition zone at 25 ug/ml after 48-96 hr by agar cup diffusion method; conditions: read-out: DIZ
Penicillium [14] = assay: Antimicrobial activity against Penicillium wild strain by agar cup diffusion method
Aspergillus clavatus [15] = assay: Antimicrobial activity against Aspergillus clavatus MTCC 1323 by agar cup diffusion method
Pseudomonas aeruginosa [16] = assay: Antimicrobial activity against Pseudomonas aeruginosa MTCC 1688 assessed as diameter of growth inhibition zone at 25 ug/ml after 18-24 hr by agar cup diffusion method; conditions: read-out: DIZ
Escherichia coli [17] = assay: Antimicrobial activity against Escherichia coli MTCC 443 assessed as diameter of growth inhibition zone at 25 ug/ml after 18-24 hr by agar cup diffusion method; conditions: read-out: DIZ
Staphylococcus aureus [18] = assay: Antimicrobial activity against Staphylococcus aureus MTCC 96 assessed as diameter of growth inhibition zone at 25 ug/ml after 18-24 hr by agar cup diffusion method; conditions: read-out: DIZ
Streptococcus pyogenes [19] = assay: Antimicrobial activity against Streptococcus pyogenes MTCC 442 assessed as diameter of growth inhibition zone at 25 ug/ml after 18-24 hr by agar cup diffusion method; conditions: read-out: DIZ
Klebsiella pneumoniae [20] = assay: Antimicrobial activity against Klebsiella pneumoniae MTCC 109 by agar cup diffusion method
Escherichia coli [21] = assay: Antimicrobial activity against Escherichia coli MTCC 443 by agar cup diffusion method
Pseudomonas aeruginosa [22] = assay: Antimicrobial activity against Pseudomonas aeruginosa MTCC 1688 by agar cup diffusion method
Staphylococcus aureus [23] = assay: Antimicrobial activity against Staphylococcus aureus MTCC 96 by agar cup diffusion method
Streptococcus pyogenes [24] = assay: Antimicrobial activity against Streptococcus pyogenes MTCC 442 by agar cup diffusion method
Trichophyton rubrum [25] = assay: Antimicrobial activity against Trichophyton rubrum MTCC 296 by agar cup diffusion method
Candida albicans [26] = assay: Antimicrobial activity against Candida albicans MTCC 227 by agar cup diffusion method
Klebsiella pneumoniae [27] = assay: Antimicrobial activity against Klebsiella pneumoniae MTCC 109 assessed as diameter of growth inhibition zone at 250 ug/ml after 18-24 hr by agar cup diffusion method; conditions: read-out: DIZ
Pseudomonas aeruginosa [28] = assay: Antimicrobial activity against Pseudomonas aeruginosa MTCC 1688 assessed as diameter of growth inhibition zone at 250 ug/ml after 18-24 hr by agar cup diffusion method; conditions: read-out: DIZ
Escherichia coli [29] = assay: Antimicrobial activity against Escherichia coli MTCC 443 assessed as diameter of growth inhibition zone at 250 ug/ml after 18-24 hr by agar cup diffusion method; conditions: read-out: DIZ
Staphylococcus aureus [30] = assay: Antimicrobial activity against Staphylococcus aureus MTCC 96 assessed as diameter of growth inhibition zone at 250 ug/ml after 18-24 hr by agar cup diffusion method; conditions: read-out: DIZ
Streptococcus pyogenes [31] = assay: Antimicrobial activity against Streptococcus pyogenes MTCC 442 assessed as diameter of growth inhibition zone at 250 ug/ml after 18-24 hr by agar cup diffusion method; conditions: read-out: DIZ
Klebsiella pneumoniae [32] = assay: Antimicrobial activity against Klebsiella pneumoniae MTCC 109 assessed as diameter of growth inhibition zone at 100 ug/ml after 18-24 hr by agar cup diffusion method; conditions: read-out: DIZ
Pseudomonas aeruginosa [33] = assay: Antimicrobial activity against Pseudomonas aeruginosa MTCC 1688 assessed as diameter of growth inhibition zone at 100 ug/ml after 18-24 hr by agar cup diffusion method; conditions: read-out: DIZ
Escherichia coli [34] = assay: Antimicrobial activity against Escherichia coli MTCC 443 assessed as diameter of growth inhibition zone at 100 ug/ml after 18-24 hr by agar cup diffusion method; conditions: read-out: DIZ
Staphylococcus aureus [35] = assay: Antimicrobial activity against Staphylococcus aureus MTCC 96 assessed as diameter of growth inhibition zone at 100 ug/ml after 18-24 hr by agar cup diffusion method; conditions: read-out: DIZ
Streptococcus pyogenes [36] = assay: Antimicrobial activity against Streptococcus pyogenes MTCC 442 assessed as diameter of growth inhibition zone at 100 ug/ml after 18-24 hr by agar cup diffusion method; conditions: read-out: DIZ
Klebsiella pneumoniae [37] = assay: Antimicrobial activity against Klebsiella pneumoniae MTCC 109 assessed as diameter of growth inhibition zone at 50 ug/ml after 18-24 hr by agar cup diffusion method; conditions: read-out: DIZ
Pseudomonas aeruginosa [38] = assay: Antimicrobial activity against Pseudomonas aeruginosa MTCC 1688 assessed as diameter of growth inhibition zone at 50 ug/ml after 18-24 hr by agar cup diffusion method; conditions: read-out: DIZ
Escherichia coli [39] = assay: Antimicrobial activity against Escherichia coli MTCC 443 assessed as diameter of growth inhibition zone at 50 ug/ml after 18-24 hr by agar cup diffusion method; conditions: read-out: DIZ
Staphylococcus aureus [40] = assay: Antimicrobial activity against Staphylococcus aureus MTCC 96 assessed as diameter of growth inhibition zone at 50 ug/ml after 18-24 hr by agar cup diffusion method; conditions: read-out: DIZ
Streptococcus pyogenes [41] = assay: Antimicrobial activity against Streptococcus pyogenes MTCC 442 assessed as diameter of growth inhibition zone at 50 ug/ml after 18-24 hr by agar cup diffusion method; conditions: read-out: DIZ
Klebsiella pneumoniae [42] = assay: Antimicrobial activity against Klebsiella pneumoniae MTCC 109 assessed as diameter of growth inhibition zone at 25 ug/ml after 18-24 hr by agar cup diffusion method; conditions: read-out: DIZ
Trichophyton rubrum [43] = assay: Antimicrobial activity against Trichophyton rubrum MTCC 296 assessed as diameter of growth inhibition zone at 250 ug/ml after 48-96 hr by agar cup diffusion method; conditions: read-out: DIZ
Aspergillus clavatus [44] = assay: Antimicrobial activity against Aspergillus clavatus MTCC 1323 assessed as diameter of growth inhibition zone at 250 ug/ml after 48-96 hr by agar cup diffusion method; conditions: read-out: DIZ
Candida albicans [45] = assay: Antimicrobial activity against Candida albicans MTCC 227 assessed as diameter of growth inhibition zone at 250 ug/ml after 48-96 hr by agar cup diffusion method; conditions: read-out: DIZ

Cc1ccc(/C=C/C(=O)C2C(=O)NC(=S)NC2=O)cc1
zone of inhibition at 250 µg/mL (Penicillium [1]): 22 mm
zone of inhibition at 100 µg/mL (Penicillium [2]): 19 mm
zone of inhibition at 100 µg/mL (Trichophyton rubrum [3]): 22 mm
zone of inhibition at 100 µg/mL (Aspergillus clavatus [4]): 22 mm
zone of inhibition at 100 µg/mL (Candida albicans [5]): 21 mm
zone of inhibition at 50 µg/mL (Penicillium [6]): 18 mm
zone of inhibition at 50 µg/mL (Trichophyton rubrum [7]): 20 mm
zone of inhibition at 50 µg/mL (Aspergillus clavatus [8]): 22 mm
zone of inhibition at 50 µg/mL (Candida albicans [9]): 20 mm
zone of inhibition at 25 µg/mL (Penicillium [10]): 18 mm
zone of inhibition at 25 µg/mL (Trichophyton rubrum [11]): 19 mm
zone of inhibition at 25 µg/mL (Aspergillus clavatus [12]): 21 mm
zone of inhibition at 25 µg/mL (Candida albicans [13]): 19 mm
MFC (Penicillium [14]): > 1000 µg/mL
MIC (Penicillium [14]): > 1000 µg/mL
MFC (Aspergillus clavatus [15]): > 1000 µg/mL
MIC (Aspergillus clavatus [15]): > 1000 µg/mL
zone of inhibition at 25 µg/mL (Pseudomonas aeruginosa [16]): 10 mm
zone of inhibition at 25 µg/mL (Escherichia coli [17]): 15 mm
zone of inhibition at 25 µg/mL (Staphylococcus aureus [18]): 10 mm
zone of inhibition at 25 µg/mL (Streptococcus pyogenes [19]): 15 mm
MBC (Klebsiella pneumoniae [20]): 100 µg/mL (≈ 347 µM)
MIC (Klebsiella pneumoniae [20]): 100 µg/mL (≈ 347 µM)
MBC (Escherichia coli [21]): 200 µg/mL (≈ 694 µM)
MIC (Escherichia coli [21]): 100 µg/mL (≈ 347 µM)
MBC (Pseudomonas aeruginosa [22]): 500 µg/mL (≈ 1730 µM)
MIC (Pseudomonas aeruginosa [22]): 250 µg/mL (≈ 867 µM)
MBC (Staphylococcus aureus [23]): 125 µg/mL (≈ 434 µM)
MIC (Staphylococcus aureus [23]): 125 µg/mL (≈ 434 µM)
MBC (Streptococcus pyogenes [24]): 200 µg/mL (≈ 694 µM)
MIC (Streptococcus pyogenes [24]): 250 µg/mL (≈ 867 µM)
MFC (Trichophyton rubrum [25]): > 1000 µg/mL
MIC (Trichophyton rubrum [25]): > 1000 µg/mL
MFC (Candida albicans [26]): > 1000 µg/mL
MIC (Candida albicans [26]): 1000 µg/mL (≈ 3470 µM)
zone of inhibition at 250 µg/mL (Klebsiella pneumoniae [27]): 17 mm
zone of inhibition at 250 µg/mL (Pseudomonas aeruginosa [28]): 17 mm
zone of inhibition at 250 µg/mL (Escherichia coli [29]): 19 mm
zone of inhibition at 250 µg/mL (Staphylococcus aureus [30]): 17 mm
zone of inhibition at 250 µg/mL (Streptococcus pyogenes [31]): 19 mm
zone of inhibition at 100 µg/mL (Klebsiella pneumoniae [32]): 15 mm
zone of inhibition at 100 µg/mL (Pseudomonas aeruginosa [33]): 16 mm
zone of inhibition at 100 µg/mL (Escherichia coli [34]): 18 mm
zone of inhibition at 100 µg/mL (Staphylococcus aureus [35]): 16 mm
zone of inhibition at 100 µg/mL (Streptococcus pyogenes [36]): 18 mm
zone of inhibition at 50 µg/mL (Klebsiella pneumoniae [37]): 14 mm
zone of inhibition at 50 µg/mL (Pseudomonas aeruginosa [38]): 12 mm
zone of inhibition at 50 µg/mL (Escherichia coli [39]): 15 mm
zone of inhibition at 50 µg/mL (Staphylococcus aureus [40]): 12 mm
zone of inhibition at 50 µg/mL (Streptococcus pyogenes [41]): 15 mm
zone of inhibition at 25 µg/mL (Klebsiella pneumoniae [42]): 12 mm
zone of inhibition at 250 µg/mL (Trichophyton rubrum [43]): 25 mm
zone of inhibition at 250 µg/mL (Aspergillus clavatus [44]): 25 mm
zone of inhibition at 250 µg/mL (Candida albicans [45]): 24 mm
